The values below come from US20210290537A1, “LIPOSOMAL ELINAFIDE FORMULATIONS AND USES THEREOF” (MALLINCKRODT LLC, priority 2016, published 2021).

Where two headings read alike, the source gives them in different places.

Data set [1] concerns HT-29 human colorectal adenocarcinoma cells. In words: In vitro IC50 cytotoxicity, Alamar Blue cell viability. The data set is classed as cell-based. As to the method: HT-29 human colorectal adenocarcinoma cells (#HTB-38, ATCC, Manassas, Va.) were plated in 96-well tissue culture plates (Costar #3595) at 5×10^3 cells/well in a final volume of 0.1 mL of 10% fetal bovine serum in McCoy's 5A (#10-050-CV, Mediatech, Manassas, Va.). Defined fetal bovine serum was obtained from HyClone (#SH30070.03, lot #AWB96395, Logan, Utah). Plates containing cells were incubated at 37° C. in 5% CO2 in humidified air for 24 hr. The selected initial cell plating density was chosen based upon the approximate doubling time of the human tumor cell line.
Test compounds were diluted from stock solutions to 2.2 mmol/L in Dulbecco's modified phosphate-buffered saline (DPBS; Mediatech, Inc., lot #21031339, Manassas, Va.), then serially diluted three-fold in DPBS to generate a nine point dose-response curve. Ten microliters of diluted test compounds were added to wells in triplicate to achieve the desired final concentration of test compounds. Plates containing cells with and without added test compounds were returned to incubation as described above.
For the two hour cytotoxicity assessment, medium was removed after two hours of drug exposure and replaced with 0.1 mL/well culture medium, and cells were incubated for an additional 70 hours as above.
For the twenty-four hour cytotoxicity assessment, medium was removed after one day of drug exposure and replaced with 0.1 mL/well culture medium, and cells were returned to incubation for an additional 48 hours. Subsequently, cell viability was assessed using Alamar Blue. For this purpose, media was removed by pipetting from cultured cells and replaced with 0.1 mL/well of 10% (v/v) Alamar Blue (#BUFO12A, AbD Serotec, Raleigh, N.C.) diluted in the appropriate cell culture media. Plates were then returned to incubation as before for appropriate color development, between two to four hours.
Fluorescence of individual plate wells was measured at 545 nm/590 nm (excitation/emission) using a BioTek Synergy4 microplate reader. Cell viability was calculated as a percentage of measured fluorescence obtained relative to cells treated with culture media alone. IC50 values (μmol/L) were determined with the mean of triplicate values using nonlinear regression analysis and a four-parameter logistic model.

Data set [2] is described as follows: MTD of liposomal and free naphthalimides and azonifides. In kind it is in vivo.
For data set [3] the following is noted: phase I studies / clinical development, background; cited from earlier work.
The nature of data set [4]: Single-dose muscle myopathy study, 14-day observation. In kind it is in vivo. The settings on record: for Myopathy / Survival: rats, 14 days. An excerpt: Rats that loss greater than 20% of its body weight were dropped from the study. […]
A short description of the next data set: in vivo. The following applies: rat, plasma, 20 mg/kg.
Where [5] appears, read: Homo sapiens, 2 h, Table 7, read-out: 2 hr Tx (IC50).
Setting [6] is: Homo sapiens, 24 h, Table 7, read-out: 24 hr Tx (IC50).
The mark [7] stands for this setting: Homo sapiens, 48 h, Table 7, read-out: 48 hr Tx (IC50).
Setting [8] is: mouse, in vivo, male athymic nude mice, read-out: MTD.
[9] abbreviates: Table 7, read-out: 2 hr Tx (IC50).
[10] abbreviates: Table 7, read-out: 24 hr Tx (IC50).
Setting [11] is: Table 7, read-out: 72 hr Tx (IC50).

The IC50 is the concentration at which inhibition is half-maximal. As a reminder, the AUC is concentration integrated over time. Read a low AUC as low exposure. A word on the Cmax: it is the peak of the concentration-time curve. In general, half-life refers to the time needed for the level to fall by half in the phase considered. A low value points to rapid decline.

For `CN(C)CCN1C(=O)c2cccc3cc(N)cc(c23)C1=O` [Amonafide Free, Amonafide], the IC50 in data set [1] (setting [5]) was 90300 nM; in data set [1] (setting [6]), 34200 nM; in data set [1] (setting [7]), 15700 nM. In data set [2] (setting [8]), the MTD was 45 mg/kg. In data set [3], the “dose-limiting toxicity in clinical study” value is “high variability and dose-limiting toxicity”.
As for `CN(C)CCN1C(=O)c2cccc3cc4ccccc4c(c23)C1=O` [Azonifide Free, Azonifide], the concentration for half-maximal inhibition (IC50) in data set [1] (setting [5]) turned out to be 1170 nM; in data set [1] (setting [6]), 256 nM; in data set [1] (setting [7]) it was 283 nM; in data set [1] (Homo sapiens, 72 h, Table 7, read-out: 72 hr Tx (IC50)), 386 nM. Besides, the MTD in data set [2] (setting [8]) was 10 mg/kg.
As to `C[C@H](CNCCNC[C@@H](C)N1C(=O)c2cccc3cc([N+](=O)[O-])cc(c23)C1=O)N1C(=O)c2cccc3cc([N+](=O)[O-])cc(c23)C1=O` [DMP-840], the “dose-limiting toxicity in clinical study” value in data set [3] is given as “dose limiting toxicity”.
As to `O=C1c2cccc3cccc(c23)C(=O)N1CCNCCCNCCN1C(=O)c2cccc3cccc(c23)C1=O` [Free Elinafide, Elinafide], the “muscle myopathy in treated rats” value in data set [4] (administration at MTD, single dose) is reported as “significant muscle myopathy”. In addition, in data set [4] (25 mg/kg, F), the Myopathy is listed as 1/3 and the Survival is 3/3. Further, in data set [4] (25 mg/kg, M), the Myopathy is 2/3 and the Survival is recorded as 3/3. Besides, in data set [4] (35 mg/kg, F), the Myopathy was 3/3 and the Survival is 3/3. Further, the Survival in data set [4] (35 mg/kg, M) was 0/3. In the data set “in vivo”, this compound showed an AUC of 4.7 ng·h/mL, a peak concentration (Cmax) of 1.4 ng/mL, a Vd of 204000 and a half-life of 53.5 h. In data set [3], the “dose-limiting toxicity in clinical study” value is “cumulative dose-limiting neuro-muscular toxicity and myelosuppression”.
Turning to `CN(C)CCN1C(=O)c2cccc3cc(NC(N)=O)cc(c23)C1=O` [UNBS-5162 Free, UNBS-5162], the half-inhibitory concentration (IC50) in data set [1] (setting [9]) is more than 100000 nM; in data set [1] (setting [10]) it was 24800 nM; in data set [1] (setting [11]) it was 31300 nM. Moreover, in data set [2] (male athymic nude mice), the MTD is reported as 45 mg/kg. For the same compound, the “dose-limiting toxicity in clinical study” value in data set [3] is “dose limiting toxicity”.
Consider `CN(C)CCN1C(=O)c2cccc3cc([N+](=O)[O-])cc(c23)C1=O` [mitonafide], for which the “dose-limiting toxicity in clinical study” value in data set [3] was “dose limiting toxicity”.
Turning to Ethonafide [Ethonafide Free], the IC50 was 751 nM in data set [1] (setting [9]), 189 nM in data set [1] (setting [10]) and 388 nM in data set [1] (setting [11]). In data set [2] (mouse, in vivo), the MTD was determined as 15 mg/kg.
